{"source": "patent EP1310258A1", "about": "“Enantiomers of steroids for the enhancement of memory and cognitive function” (Baulieu, Etienne-Emile, priority 2001, dated 2003)", "key": {"NMDA receptor [1]": {"system": "NMDA receptor", "assay": "Coadministration of steroids with the NMDA receptor antagonist AP5, Y-maze recognition performance, rats", "assay_type": "in vivo", "conditions": "for memory performances when coadministered with AP5 compared to the group treated with the steroid alone: AP5 10 nmol ICV together with PREGS 0.5 nmol or ent-PREGS 0.05 nmol; for recognition performances of steroid alone compared with vehicle-controls: ICV effective doses alone (PREGS 0.5 nmol, ent-PREGS 0.05 nmol), P < 0.05", "method": "(§1) The two-trial memory task based on spontaneous exploration of novelty was adapted from the ones described by Dellu et al. (1992, Brain Res., 588, 132-9) in rats and by Ladurelle et al. (2000, Brain Res., 858, 371-9) in mice.\n(§2) Experiments were performed in a gray polyvinychloride Y-maze. The size of each arm was 40 cm long, 15 cm wide and 35 cm high for rats, and 30 cm long, 10 cm wide and 17 cm high for mice. The floor of the maze was covered with odor-saturated sawdust which was mixed after each trial. The maze was placed in a sound-attenuated room under dim illumination. Numerous visual cues were placed on the walls of the testing room and kept constant during the entire behavioral testing..\n(§3) The test consisted of two trials, separated by a 6-h intertrial interval. During the first trial (acquisition phase), one arm of the Y-maze (subsequently called novel arm) was closed with a guillotine door, thus allowing the animal to explore only the other two arms, during 5 min and 3 min for rats and mice, respectively. During the second trial (retention phase), the animals had access to the three arms for 5 min. The time spent in each arm of the maze was recorded manually every minute. Recognition was assumed to have occurred when the animal spent more time in the novel arm compared with the familiar ones. The total number of arm visits provided a measure of general motor activity.\n(§4) A between-subjects design was used where each observation was made for a separate animal. Data were reported as the amount of time spent in the novel arm relative to the total duration of visits in the three arms (novel/total x 100) during the first 3 min.\n(§5) They were expressed as mean ± SEM and analyzed by using one-way ANOVA followed by Newmann-Keuls posthoc test. Significance was defined as P<0.05 or P<0.01.\n(§6) The effects of the ICV injection of AP5, at ICV doses of 2 and 10 nmol in mice and rats, respectively, was studied on the memory-enhancing effects of PREGS (0.5 nmol in rats and 5.0 nmol in mice) and ent-PREGS (0.05 nmol in rats and 5.0 nmol in mice)."}, "NMDA receptor [2]": {"system": "NMDA receptor", "assay": "Coadministration of steroids with the NMDA receptor antagonist AP5, Y-maze recognition performance, mice", "assay_type": "in vivo", "conditions": "for memory performances when coadministered with AP5 compared to the group treated with the steroid alone: AP5 2 nmol ICV together with PREGS 5.0 nmol or ent-PREGS 5.0 nmol (so in the source); for recognition performances of steroid alone compared with vehicle-controls: ICV effective doses alone (PREGS 5.0 nmol, ent-PREGS 5.0 nmol as printed), P < 0.05", "method": "as §1, §2, §3, §4, §5, §6"}, "steroid sulfatase [3]": {"biological_target": "T1, steroid sulfatase (Rattus norvegicus, UniProt P15589)", "T1 sequence (P15589 20-577)": "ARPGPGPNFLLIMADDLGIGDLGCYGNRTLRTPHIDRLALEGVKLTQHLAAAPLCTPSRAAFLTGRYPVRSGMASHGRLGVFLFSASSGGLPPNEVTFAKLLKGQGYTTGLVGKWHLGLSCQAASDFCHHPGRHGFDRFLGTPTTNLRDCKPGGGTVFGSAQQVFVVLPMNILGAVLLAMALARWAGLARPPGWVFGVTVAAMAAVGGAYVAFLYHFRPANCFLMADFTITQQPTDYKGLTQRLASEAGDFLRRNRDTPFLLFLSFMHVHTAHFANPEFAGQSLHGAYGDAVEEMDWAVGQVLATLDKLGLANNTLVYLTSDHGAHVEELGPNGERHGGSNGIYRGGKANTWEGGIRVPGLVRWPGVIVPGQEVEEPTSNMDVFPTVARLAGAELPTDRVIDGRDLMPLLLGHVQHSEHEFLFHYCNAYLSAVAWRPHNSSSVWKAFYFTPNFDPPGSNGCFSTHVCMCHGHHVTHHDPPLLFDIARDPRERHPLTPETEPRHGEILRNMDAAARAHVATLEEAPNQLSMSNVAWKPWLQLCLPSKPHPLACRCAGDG", "assay": "In vitro metabolism: steroid sulfatase activity by rat brain microsomes", "assay_type": "in vitro ADME", "design": "200 µg microsomal proteins prepared from rat brain or liver; from tissue; host or cells: rat liver microsomes", "conditions": "8 µg steroid with 200 µg rat brain microsomal proteins, 37°C, 1 hour", "method": "(§7) The metabolism of PREGS and ent-PREGS was examined after incubation of 8 µg of each steroid with 200 µg microsomal proteins prepared from rat brain or liver, at 37°C for lhour, and the unconjugated PREG was quantified in the brain by gas-chromatography-mass spectrometry (Liere et al., 2000, J. Chromatogr. B Biomed. Sci. Appl. 2000,739:301-12)\nas §7, with “DHEAS” for “PREGS”, “ent-DHEAS” for “ent-PREGS”, “1hour,” for “lhour,”, “DHEA” for “PREG”"}, "steroid sulfatase [4]": {"biological_target": "T1, steroid sulfatase", "assay": "In vitro metabolism: steroid sulfatase activity by rat liver microsomes", "assay_type": "in vitro ADME", "design": "200 µg microsomal proteins prepared from rat brain or liver; from tissue; host or cells: rat liver microsomes", "conditions": "37°C, 1 hour; for formation of DHEA (metabolism by sulfatase) / formation of PREG (metabolism by sulfatase): 8 µg steroid with 200 µg rat liver microsomal proteins", "method": "as §7\nas §7, with “DHEAS” for “PREGS”, “ent-DHEAS” for “ent-PREGS”, “1hour,” for “lhour,”, “DHEA” for “PREG”"}, "Swiss mice": {"system": "Swiss mice", "assay": "Two-trial memory task (spatial recognition) in a Y-maze after ICV administration, mice", "assay_type": "in vivo", "conditions": "ICV immediately after acquisition, 6-h intertrial interval, Newman-Keuls (PREGS P<0.05; ent-PREGS P<0.01)", "method": "(§8) Male Sprague-Dawley rats and Swiss mice (Janvier, Le Genest St-Isle, France) 2 months of age and weighing 250-300g for rats and 30-32g for mice at the time of surgery were used. They were grouped-housed in a temperature (22°C ± 1°C) and humidity (50% ± 5%) controlled room. They were maintained on a 12-h light/12-h dark (08.00-20.00) schedule and had access to food and water ad libitum.\n(§9) Rats were anaesthesized with a mixture of 5% ketamine (Imalgène 1000, Merial, France) and 0.1% acepromazine (Vetranquil 1%,) in saline, administered i.p. at 1.5 ml/kg. Mice were anesthetized with a mixture of 0.5% ketamine and 0.1% xylazine, under the volume of 15 ml/kg.\n(§10) Animals were mounted in a stereotaxic and implanted with unilateral stainless steel cannula guides (23-gauge, 7 mm long) above the lateral ventricle, according to the coordinates from the atlas of rats and mice. Cannulas were secured to the skull with stainless steel screws and dental cement.\nAnimals were used for experiments after a 7-day postrecovery period. Each animal was handled daily for 3 days before the experiments and on the day before each experiment, cannula function was confirmed by gravity flow of isotonic saline. […]\n(§11) The test consisted of two trials, separated by a 6-h intertrial interval. […] The time spent in each arm of the maze was recorded manually every minute. […]"}, "steroid sulfatase [5]": {"biological_target": "T1, steroid sulfatase", "assay": "In vivo metabolism in rat brain: steroid sulfatase activity (GC-MS of unconjugated PREG)", "conditions": "5 min after ICV administration of 1µg", "method": "The metabolism of PREGS and ent-PREGS was investigated 5 min after ICV administration of 1µg of each compound in rat and the unconjugated PREG was quantified in the brain by gas-chromatography-mass spectrometry (Liere et al., 2000, J. Chromatogr. B Biomed Sci. Appl. 2000,739:301-12)."}, "Male Sprague-Dawley rats": {"system": "Male Sprague-Dawley rats", "assay": "Two-trial memory task (spatial recognition) in a Y-maze after ICV administration, rats", "assay_type": "in vivo", "conditions": "ICV immediately after acquisition, 6-h intertrial interval, Newman-Keuls P<0.05", "method": "as §8, §9, §10\nAnimals were used for experiments after a 7-day postrecovery period. Each animal was handled daily for 3 days before the experiments and on the day before each experiment, cannula function was confirmed by gravity flow of isotonic saline.\nPREGS was obtained from Steraloïds (Newport, RI, Etats-Unis); the steroid enantiomers ent-SPREG et ent-SDHEA were synthesized as previously described (Nilsson et al., 1998, op. cit.). All compounds were dissolved in […] (vehicle)\nPREGS was administered iCV at doses of 0 (vehicle), 0.05, 0.25, 0.5, 2.5, 5.0 and 12.5 nmol in rats and of 0 (vehicle), 0.05, 0.25, 0.5, 2.5, 5.0 and 12.5 nmol mice\nent-PREGS was injected ICV at doses of 0 (vehicle), 0.025, 0.05, 0.25, 0.5 nmol in rats and 0 (vehicle), 0.025, 0.05, 0.25, 0.5 and 2.5 nmol in mice.\nent-SDHEA was administered iCV at doses of 0; 0,25; 0,25 nmol in rats.\nDrug and control-vehicle solutions were injected unilaterally through the cannula guide. […]\nas §11"}, "[6]": {"conditions": "rat liver versus brain microsomes, 8 µg steroid, 200 µg protein"}}, "note": "Where a name gives a salt, the structure may show the parent alone."}
{"compound": "NC(CCCP(=O)(O)O)C(=O)O", "note": "(stereo not drawn) [AP5]", "values": [{"measurement": "recognition performance of AP5-treated group versus vehicle-control", "setting": "NMDA receptor [1]; AP5 alone 10 nmol ICV, P > 0.05", "result": "did not significantly differ"}, {"measurement": "recognition performance of AP5-treated group versus vehicle-control", "setting": "NMDA receptor [2]; AP5 alone 2 nmol ICV, P > 0.05", "result": "did not significantly differ"}]}
{"compound": "C[C@]12CC[C@H](OS(=O)(=O)O)CC1=CC[C@@H]1[C@@H]2CC[C@]2(C)C(=O)CC[C@@H]12", "note": "[DHEAS, dehydroepiandrosterone sulfate]", "values": [{"measurement": "formation of DHEA (metabolism by sulfatase)", "setting": "steroid sulfatase [3]", "result": "metabolized into DHEA"}, {"measurement": "formation of DHEA (metabolism by sulfatase)", "setting": "steroid sulfatase [4]", "result": "metabolized into DHEA"}, {"measurement": "levels of DHEA in the liver relative to the brain", "setting": "steroid sulfatase [4]; [6]", "result": 5, "unit": "times"}]}
{"compound": "CC(=O)C1CCC2C3CC=C4CC(OS(=O)(=O)O)CCC4(C)C3CCC12C", "note": "(stereo not drawn) [PREGS, pregnenolone sulfate]", "values": [{"measurement": "memory performances when coadministered with AP5 compared to the group treated with the steroid alone", "setting": "NMDA receptor [1]", "result": "significantly reduced"}, {"measurement": "recognition performances of steroid alone compared with vehicle-controls", "setting": "NMDA receptor [1]", "result": "significantly increased"}, {"measurement": "dose at which % time spent in the novel arm / memory performance was significantly increased relative to vehicle-control", "setting": "Swiss mice", "result": 5.0, "unit": "nmol"}, {"measurement": "formation of PREG (metabolism by sulfatase)", "setting": "steroid sulfatase [3]", "result": "metabolized into PREG"}, {"measurement": "memory performances when coadministered with AP5 compared to the group treated with the steroid alone", "setting": "NMDA receptor [2]", "result": "significantly reduced"}, {"measurement": "recognition performances of steroid alone compared with vehicle-controls", "setting": "NMDA receptor [2]", "result": "significantly increased"}, {"measurement": "brain content of PREG compared with saline-injected control rats", "setting": "steroid sulfatase [5]", "result": "signicantly increased"}, {"measurement": "formation of PREG (metabolism by sulfatase)", "setting": "steroid sulfatase [4]", "result": "metabolized into PREG"}, {"measurement": "levels of PREG in the liver relative to the brain", "setting": "steroid sulfatase [4]; [6]", "result": 4, "unit": "times"}, {"measurement": "dose at which % time spent in the novel arm / memory performance was significantly increased relative to vehicle-control", "setting": "Male Sprague-Dawley rats", "result": 0.5, "unit": "nmol"}]}
{"compound": "C[C@@]12CC[C@@H]3[C@H](CC=C4C[C@H](OS(=O)(=O)O)CC[C@]43C)[C@H]1CCC2=O", "note": "[ent-DHEAS]", "values": [{"measurement": "formation of DHEA (metabolism by sulfatase)", "setting": "steroid sulfatase [3]", "result": "undectectable"}, {"measurement": "formation of DHEA (metabolism by sulfatase)", "setting": "steroid sulfatase [4]", "result": "undectectable"}, {"measurement": "dose at which % time spent in the novel arm / memory performance was significantly increased relative to vehicle-control", "setting": "Male Sprague-Dawley rats", "result": "0,025 nmol"}]}
{"compound": "CC(=O)[C@@H]1CC[C@@H]2[C@H]3CC=C4C[C@H](OS(=O)(=O)O)CC[C@@]4(C)[C@@H]3CC[C@]21C", "note": "[ent-PREGS]", "values": [{"measurement": "memory performances when coadministered with AP5 compared to the group treated with the steroid alone", "setting": "NMDA receptor [1]", "result": "did not perform differently"}, {"measurement": "recognition performances of steroid alone compared with vehicle-controls", "setting": "NMDA receptor [1]", "result": "significantly increased"}, {"measurement": "dose at which % time spent in the novel arm / memory performance was significantly increased relative to vehicle-control", "setting": "Swiss mice", "result": 0.5, "unit": "nmol"}, {"measurement": "formation of PREG (metabolism by sulfatase)", "setting": "steroid sulfatase [3]", "result": "undectectable"}, {"measurement": "memory performances when coadministered with AP5 compared to the group treated with the steroid alone", "setting": "NMDA receptor [2]", "result": "did not perform differently"}, {"measurement": "recognition performances of steroid alone compared with vehicle-controls", "setting": "NMDA receptor [2]", "result": "significantly increased"}, {"measurement": "brain content of PREG compared with saline-injected control rats", "setting": "steroid sulfatase [5]", "result": "did not significantly differ"}, {"measurement": "formation of PREG (metabolism by sulfatase)", "setting": "steroid sulfatase [4]", "result": "undectectable"}, {"measurement": "dose at which % time spent in the novel arm / memory performance was significantly increased relative to vehicle-control", "setting": "Male Sprague-Dawley rats", "result": 0.05, "unit": "nmol"}]}
